Where two headings read alike, the source gives them in different places.
Assays:
Dermatophagoides farinae = tested on: Dermatophagoides farinae
Experimental: (§1) American house dust mite (Dermatophagoides farinae) and European house dust mite (Dermatophagoide pteronyssinus) were maintained at 75±5% RH (relative humidity) at 25±1° C., and were provided a feed mixture of fish meal and multi-vitamins in a ratio of 1 to 1 on a 12.5×10.5×5 cm container.
(§2) The starting concentration is important for the primary screening of bioactive compounds from plant extracts and oils. […] 1 mg of the methanol extracts or oils were suspended with 40 μl of methanol and were transferred to a colorless microtube (2 ml). The microtube was vertically shaken several times to disperse the contents to the wall and cap of the microtube and it was placed in a freeze dryer for 1 hour in order to volatilize the solvent. Twenty-five mites were placed on the prepared microtube, and all treatment groups were transferred to an incubator kept at […]. Active mites only were selected with a fine brush under a microscope. Mortalities were determined with a microscope at 24 hours and 48 hours after treatment. […] All tests were replicated four or more times. The percentage mortality was determined and transformed to arcsine square-root values for analysis of variance (ANOVA). Treatment means were compared and separated by Scheffe's test at the P=0.05 (SAS Institute, 1996). Means (±standard error) of untransformed data are reported. Controls received 40 μl of methanol.

[1] = tested on: Dermatophagoides pteronyssinus
Experimental: as §1, §2

house dust mites = type: in vivo
Experimental: All tests were replicated four or more times. […] Means (±standard error) of untransformed data are reported. Controls received 40 μl of methanol.

[2] = synergic effect test, 0.25 mg/tube of each compound, 24 hr
[3] = 0.5 mg/tube, 48 hr, listed as Allyl isothiocyanate

SMILES	Mortality (Means ± standard error, %) (Dermatophagoides farinae; 0.125 mg/tube, 24 hr)	Mortality (Means ± standard error, %) (Dermatophagoides farinae; 0.125 mg/tube, 48 hr)	Mortality (Means ± standard error, %) (Dermatophagoides farinae; 0.2 mg/tube, 24 hr)	Mortality (Means ± standard error, %) (Dermatophagoides farinae; 0.2 mg/tube, 48 hr)	Mortality (Means ± standard error, %) (Dermatophagoides farinae; 0.25 mg/tube, 24 hr)	Mortality (Means ± standard error, %) (Dermatophagoides farinae; 0.25 mg/tube, 48 hr)	Mortality (Means ± standard error, %) (Dermatophagoides farinae; 0.3 mg/tube, 24 hr)	Mortality (Means ± standard error, %) (Dermatophagoides farinae; 0.3 mg/tube, 48 hr)	Mortality (Means ± standard error, %) (Dermatophagoides farinae; 0.4 mg/tube, 24 hr) [b %]	Mortality (Means ± standard error, %) (Dermatophagoides farinae; 0.4 mg/tube, 48 hr)	Mortality (Means ± standard error, %) (Dermatophagoides farinae; 0.5 mg/tube, 24 hr)	Mortality (Means ± standard error, %) (Dermatophagoides farinae; 0.5 mg/tube, 48 hr)	Mortality (Means ± standard error, %) (Dermatophagoides farinae; 1 mg/tube, 24 hr)	Mortality (Means ± standard error, %) (Dermatophagoides farinae; 1 mg/tube, 48 hr) [a %]	Mortality (Means ± standard error, %) ([1]; 0.125 mg/tube, 24 hr)	Mortality (Means ± standard error, %) ([1]; 0.125 mg/tube, 48 hr)	Mortality (Means ± standard error, %) ([1]; 0.2 mg/tube, 24 hr)	Mortality (Means ± standard error, %) ([1]; 0.2 mg/tube, 48 hr) [c %]	Mortality (Means ± standard error, %) ([1]; 0.25 mg/tube, 24 hr)	Mortality (Means ± standard error, %) ([1]; 0.25 mg/tube, 48 hr)	other results
CCN(CC)C(=O)c1cccc(C)c1 [DEET, reference compound]	–	–	–	–	–	–	–	–	–	–	–	–	–	–	–	–	–	–	–	–	Mortality (Means ± standard error, %) (Dermatophagoides farinae; [2]): 96.8%; Mortality (Means ± standard error, %) [1, 2]: 16.8%
C=CCN=C=S [allyl isothiocyanate]	1.0 ± 1.0 e %	0 e %	6.0 ± 1.2 d %	9.0%	7.0 ± 3.0 d %	8.0%	22.0 ± 2.6 c %	27.0%	44.0 ± 2.8	46.0%	90.0 ± 2.6 a %	97.0%	100 a %	100	6.0 ± 3.5 d %	9.0 ± 2.5 c %	7.0 ± 1.0 cd %	9.0 ± 1.0	9.0 ± 1.9 cd %	10.0 ± 2.6 bc %	Mortality (Means ± standard error, %) (Dermatophagoides farinae; [3]): 94%; Mortality (Means ± standard error, %) ([1]; 0.3 mg/tube, 24 hr): 25.0 ± 2.5 bc %; Mortality (Means ± standard error, %) ([1]; 0.3 mg/tube, 48 hr): 32.0 ± 2.8 b %; Mortality (Means ± standard error, %) ([1]; 0.4 mg/tube, 24 hr): 33.0 ± 2.5 b %; Mortality (Means ± standard error, %) ([1]; 0.4 mg/tube, 48 hr): 42.0 ± 4.2 b %; Mortality (Means ± standard error, %) ([1]; 0.5 mg/tube, 24 hr): 92.0 ± 2.6 a %; Mortality (Means ± standard error, %) ([1]; 0.5 mg/tube, 48 hr): 94.0 ± 2.6 a %; Mortality (Means ± standard error, %) [1, 3]: 96%; Mortality (Means ± standard error, %) ([1]; 1 mg/tube, 24 hr): 100 a %; Mortality (Means ± standard error, %) ([1]; 1 mg/tube, 48 hr): 100 a %; acaricidal activity / mortality against two species of house dust mites (house dust mites; 1 mg/tube, 48 hours after treatment): 100%; acaricidal activity (house dust mites; at 0.4 mg and less): no significant acaricidal activity
OC/C=C/c1ccccc1 [cinnamyl alcohol]	1.0 ± 1.0d %	2.0 ± 1.2c %	7.0 ± 1.0c %	7.0 ± 1.0c %	10.0 ± 3.8c %	10.0 ± 4.1c %	39.0 ± 2.6b %	45.0 ± 1.9b %	58.0 ± 2.6	65.0 ± 1.9ab %	90.0%	97.0 ± 1.9a %	99.0 ± 1.0a %	100	1.0 ± 1.0e %	3.0 ± 1.9d %	6.0 ± 1.2d %	10.0 ± 1.2	15.0 ± 1.9d %	14.0 ± 2.6c %	Mortality (Means ± standard error, %) ([1]; 0.3 mg/tube, 24 hr): 35.0 ± 2.5c %; Mortality (Means ± standard error, %) ([1]; 0.3 mg/tube, 48 hr): 40.0 ± 3.7b %; Mortality (Means ± standard error, %) ([1]; 0.4 mg/tube, 24 hr): 56.0 ± 2.8b %; Mortality (Means ± standard error, %) ([1]; 0.4 mg/tube, 48 hr): 62.0 ± 2.6b %; Mortality (Means ± standard error, %) ([1]; 0.5 mg/tube, 24 hr): 90.0%; Mortality (Means ± standard error, %) ([1]; 0.5 mg/tube, 48 hr): 97.0 ± 1.9a %; Mortality (Means ± standard error, %) ([1]; 1 mg/tube, 24 hr): 99.0 ± 1.0a %; Mortality (Means ± standard error, %) ([1]; 1 mg/tube, 48 hr): 100a %
CCCCOC(=O)c1ccccc1C(=O)OCCCC [dibutyl phtalate, reference compound]	–	–	–	–	–	–	–	–	–	–	–	–	–	–	–	–	–	–	–	–	Mortality (Means ± standard error, %) (Dermatophagoides farinae; [2]): 92.0%; Mortality (Means ± standard error, %) [1, 2]: 95.2%
O=C/C=C/c1ccccc1 [trans-cinnamaldehyde]	18.0 ± 2.6d %	23.0 ± 3.4c %	19.0 ± 2.5cd %	29.0 ± 1.9bc %	21.0 ± 2.5cd %	30.0 ± 8.7bc %	32.0 ± 1.6bc %	39.0 ± 2.5bc %	41.0 ± 2.5	45.0 ± 2.5b %	94.0%	96.0 ± 2.3a %	99.0 a^c %	100	6.0 ± 3.5d %	9.0 ± 2.5c %	7.0 ± 1.0cd %	9.0 ± 1.0	9.0 ± 1.9cd %	10.0 ± 2.6bc %	Mortality (Means ± standard error, %) ([1]; 0.3 mg/tube, 24 hr): 25.0 ± 2.5bc %; Mortality (Means ± standard error, %) ([1]; 0.3 mg/tube, 48 hr): 32.0 ± 2.8b %; Mortality (Means ± standard error, %) ([1]; 0.4 mg/tube, 24 hr): 33.0 ± 2.5b %; Mortality (Means ± standard error, %) ([1]; 0.4 mg/tube, 48 hr): 42.0 ± 4.2b %; Mortality (Means ± standard error, %) ([1]; 0.5 mg/tube, 24 hr): 84.0%; Mortality (Means ± standard error, %) ([1]; 0.5 mg/tube, 48 hr): 94.0 ± 2.6a %; Mortality (Means ± standard error, %) ([1]; 1 mg/tube, 24 hr): 100a %; Mortality (Means ± standard error, %) ([1]; 1 mg/tube, 48 hr): 100a %

— patent US6855348B2, “Insecticidal composition derived from plants” (priority 2000, dated 2005)
